Reference: patent US10266526B2, “Substituted 1,2,3-triazoles as SMYD inhibitors for treating cancer” (EPIZYME, INC., priority 2014, dated 2019)
Structures can show the parent of a compound that is named as a salt.

What follows are compounds tested against SMYD3 (Homo sapiens (Human), UniProt Q9H7B4) (assay: SMYD3 biochemical assay (SMYD3 enzyme assay on MEKK2 protein substrate, 3H-SAM scintillation proximity assay)). Details: Table 1A; average of n = 1 to n = 50; read-out: SMYD3 Biochem IC50.
SMYD3, sequence (Q9H7B4 whole entry): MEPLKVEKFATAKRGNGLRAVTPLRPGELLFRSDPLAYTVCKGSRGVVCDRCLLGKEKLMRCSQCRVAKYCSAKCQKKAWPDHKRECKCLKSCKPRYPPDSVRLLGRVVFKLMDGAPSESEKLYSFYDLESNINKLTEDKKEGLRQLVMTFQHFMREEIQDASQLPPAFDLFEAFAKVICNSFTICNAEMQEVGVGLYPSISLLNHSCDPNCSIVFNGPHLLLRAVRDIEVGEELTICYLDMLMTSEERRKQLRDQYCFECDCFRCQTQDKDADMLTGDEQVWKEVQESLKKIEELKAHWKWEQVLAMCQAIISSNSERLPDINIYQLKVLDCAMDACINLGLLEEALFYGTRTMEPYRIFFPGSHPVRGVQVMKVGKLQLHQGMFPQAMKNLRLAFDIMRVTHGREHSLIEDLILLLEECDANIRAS
Excerpt: S-adenosylmethionine (SAM), S-adenosylhomocysteine (SAH), Tris, Tween20, dimethylsulfoxide (DMSO), bovine skin gelatin (BSG), and Tris(2-carboxyethyl)phosphine hydrochloride solution (TCEP) were purchased from Sigma-Aldrich at the highest level of purity possible. ^3H-SAM was purchase from American Radiolabeled Chemicals with a specific activity of 80 Ci/mmol. 384-well opaque white OptiPlates and SPA beads (Perkin Elmer, catalog # RPNQ0013) were purchased from PerkinElmer.
N-terminally GST-tagged MEKK2 (MAP3K2) protein corresponding to reference sequence AAF63496.3 was purchased from Life Technologies (catalog # PV4010). This protein was expressed in High Five insect cells and purified to >85% purity. Protein identity was confirmed by MS/MS analysis after proteolytic digestion. The protein sequence used was:
Full-length human SMYD3 isoform 1 (BAB86333) was inserted into a modified pET21b plasmid containing a His6 tag and TEV and SUMO cleavage sites.
E. coli (BL21 codonplus RIL strain, Stratagene) were transformed with plasmid pEPZ553 by mixing competent cells and plasmid DNA and incubating on ice for 30 minutes followed by heat shock at 42° C. for 1 minute and cooling on ice for 2 minutes. Transformed cells were grown and selected on LB agar with 100 μg/mL ampicillin and 17 μg/mL chloramphenicol at 37° C. overnight. A single clone was used to inoculate 200 mL of LB medium with 100 μg/mL ampicillin and 17 μg/mL chloramphenicol and incubated at 37° C. on an orbital shaker at 180 rpm. Once in log growth, the culture was diluted 1:100 into 2 L of LB medium and grown until OD600 was about 0.3 after which the culture was incubated at 15° C. and 160 rpm. Once OD600 reached about 0.4, IPTG was added to a final concentration of 0.1 mM and the cells were grown overnight at 15° C. and 160 rpm. Cells were harvested by centrifugation at 8000 rpm, for 4 minutes at 4° C. and stored at −80° C. for purification.
The column was washed with Buffer B (Buffer A plus 20 mM imidazole) and His-tagged SMYD3 was eluted with Buffer C (Buffer A plus 300 mM imidazole). The His tag, TEV and SUMO cleavage sites were removed generating native SMYD3 by addition of ULP1 protein at a ratio of 1:200 (ULP1:SMYD3). Imidazole was removed by dialysis overnight in Buffer A. The dialyzed solution was applied to a second Nickel column and the native SMYD3 protein was collected from the column flow-through. The flow-through was dialyzed in Buffer D (25 mM Tris, 5% glycerol, 5 mM β-mercaptoethanol, 50 mM NaCl, pH7.8) and ULP1 was removed using a Q sepharose fast flow column.
General Procedure for SMYD3 Enzyme Assays on MEKK2 Protein Substrate
The assays were all performed in a buffer consisting of 25 mM Tris-Cl pH 8.0, 1 mM TCEP, 0.005% BSG, and 0.005% Tween 20, prepared on the day of use. […] DMSO (1 ul) was added to Columns 11, 12, 23, 24, rows A-H for the maximum signal control and 1 ul of SAH, a known product and inhibitor of SMYD3, was added to columns 11, 12, 23, 24, rows I-P for the minimum signal control. A cocktail (40 ul) containing the SMYD3 enzyme was added by Multidrop Combi (Thermo-Fisher). The compounds were allowed to incubate with SMYD3 for 30 min at room temperature, then a cocktail (10 ul) containing SAM and MEKK2 was added to initiate the reaction (final volume=51 ul). […] The assays were stopped by the addition of non-radiolabeled SAM (10 ul) to a final concentration of 100 uM, which dilutes the ^3H-SAM to a level where its incorporation into MEKK2 is no longer detectable. Radiolabeled MEKK2 was detected using a scintillation proximity assay (SPA). 10 uL of a 10 mg/mL solution of SPA beads in 0.5 M citric acid was added and the plates centrifuged at 600 rpm for 1 min to precipitate the radiolabeled MEKK2 onto the SPA beads.
`Cc1ncc(C(=O)N[C@H]2CC[C@H](N)CC2)[nH]1` [compound 522, N-((1r,4r)-4-aminocyclohexyl)-2-methyl-1H-imidazole-5-carboxamide] gave an IC50 of over 50 µM. `CC(NC(=O)c1nnc[nH]1)C1CCN(C(=O)[C@H](C)N)CC1` (stereo partly drawn) [compound 523, N-(1-(1-(L-alanyl)piperidin-4-yl)ethyl)-4H-1,2,4-triazole-3-carboxamide] was tested, and the IC50 was over 50 µM. In the case of `CCc1nnc(C(=O)N[C@H]2CC[C@H](NC(=O)CCN)CC2)[nH]1` [compound 536, N-((1r,4r)-4-(3-aminopropanamido)cyclohexyl)-5-ethyl-4H-1,2,4-triazole-3-carboxamide], the IC50 is reported as over 50 µM.

Same assay, conditions: read-out: SMYD3 Biochem IC50
For `CC1Oc2ccc(C(=O)NC(C)C3CCN(C(=O)[C@H](C)N)CC3)cc2NC1=O` (stereo partly drawn) [compound 450, N-(1-(1-(L-alanyl)piperidin-4-yl)ethyl)-2-methyl-3-oxo-3,4-dihydro-2H-benzo[b][1,4]oxazine-6-carboxamide], the IC50 was 25.4 µM. With `COc1ccc2cc(C(=O)N[C@H]3CC[C@H](NC(=O)CCN)CC3)ccc2c1` [compound 326, N-((1r,4r)-4-(3-aminopropanamido)cyclohexyl)-6-methoxy-2-naphthamide] the IC50 was 28 µM. `CC(NC(=O)c1ccc(-n2cncn2)cc1)C1CCN(C(=O)[C@H](C)N)CC1` (stereo partly drawn) [compound 472, N-(1-(1-(L-alanyl)piperidin-4-yl)ethyl)-4-(1H-1,2,4-triazol-1-yl)benzamide] was tested, and the IC50 was over 100 µM. `Cc1cncc(C(=O)N[C@H]2CC[C@H](NC(=O)CCN)CC2)c1` [compound 344, N-((1r,4r)-4-(3-aminopropanamido)cyclohexyl)-5-methylnicotinamide] showed an IC50 of 36.4 µM. `CC(NC(=O)Cc1cccnc1)C1CCN(C(=O)[C@H](C)N)CC1` (stereo partly drawn) [compound 314, N-(1-(1-(L-alanyl)piperidin-4-yl)ethyl)-2-(pyridin-3-yl)acetamide] gave an IC50 of over 100 µM. Compound `NC1CCC(NC(=O)[C@H]2Cc3ccccc3CN2)CC1` (stereo partly drawn) [compound 459, (3R)-N-(4-aminocyclohexyl)-1,2,3,4-tetrahydroisoquinoline-3-carboxamide] has an IC50 of over 100 µM. `NCCC(=O)N[C@H]1CC[C@H](NC(=O)c2c[nH]c3ccccc23)CC1` [compound 391, N-((1r,4r)-4-(3-aminopropanamido)cyclohexyl)-1H-indole-3-carboxamide] was tested, and the IC50 was over 100 µM. Compound `COc1ccc2cc(C(C)C(=O)NC(C)C3CCN(C(=O)[C@H](C)N)CC3)ccc2c1` (stereo partly drawn) [compound 334, N-(1-(1-(L-alanyl)piperidin-4-yl)ethyl)-2-(6-methoxynaphthalen-2-yl)propanamide] has an IC50 of 34.9 µM. `Cc1cc(C(=O)N[C@H]2CC[C@H](NC(=O)CCN)CC2)ccn1` [compound 393, N-((1r,4r)-4-(3-aminopropanamido)cyclohexyl)-2-methylisonicotinamide] showed an IC50 of over 100 µM. Work on `CC(C)(CNC(=O)CN)CNS(=O)(=O)c1ccc2c(c1)CC(=O)N2` [compound 486, 2-amino-N-(2,2-dimethyl-3-((2-oxoindoline)-5-sulfonamido)propyl)acetamide] yielded an IC50 of 18.8 µM. Compound `NCCC(=O)N[C@H]1CC[C@H](NC(=O)C2=NNC(=O)CC2)CC1` [compound 481, N-((1r,4r)-4-(3-aminopropanamido)cyclohexyl)-6-oxo-1,4,5,6-tetrahydropyridazine-3-carboxamide] has an IC50 of 15.1 µM. `Cc1ccncc1C(=O)NC(C)C1CCN(C(=O)[C@H](C)N)CC1` (stereo partly drawn) [compound 255, N-(1-(1-(L-alanyl)piperidin-4-yl)ethyl)-4-methylnicotinamide] was tested, and the IC50 was 73.4 µM. Work on `Cc1ccncc1C(=O)N[C@H]1CC[C@H](NC(=O)CCN)CC1` [compound 381, N-((1r,4r)-4-(3-aminopropanamido)cyclohexyl)-4-methylnicotinamide] yielded an IC50 of over 100 µM. In the case of `NCCC(=O)N[C@H]1CC[C@H](NC(=O)c2cn(CC(N)=O)nn2)CC1` [compound 516, 1-(2-amino-2-oxoethyl)-N-((1r,4r)-4-(3-aminopropanamido)cyclohexyl)-1H-1,2,3-triazole-4-carboxamide], the IC50 is reported as over 50 µM. `CC1=NN(c2ccc(C(=O)NC(C)C3CCN(C(=O)[C@H](C)N)CC3)cc2)C(=O)C1` (stereo partly drawn) [compound 218, N-(1-(1-(L-alanyl)piperidin-4-yl)ethyl)-4-(3-methyl-5-oxo-4,5-dihydro-1H-pyrazol-1-yl)benzamide] was tested, and the IC50 was 77 µM. `N[C@H]1CC[C@H](NC(=O)c2ncccc2O)CC1` [compound 480, N-((1r,4r)-4-aminocyclohexyl)-3-hydroxypicolinamide] showed an IC50 of over 100 µM. `NCCC(=O)N[C@H]1CC[C@H](NC(=O)c2ccc3[nH]ccc3c2)CC1` [compound 235, N-((1r,4r)-4-(3-aminopropanamido)cyclohexyl)-1H-indole-5-carboxamide] gave an IC50 of 13.4 µM. In the case of `Cn1nccc1C(=O)N[C@H]1CC[C@H](NC(=O)CCN)CC1` [compound 414, N-((1r,4r)-4-(3-aminopropanamido)cyclohexyl)-1-methyl-1H-pyrazole-5-carboxamide], the IC50 is reported as over 100 µM. Work on `N[C@H]1CC[C@H](NC(=O)c2cc3cc(F)ccc3[nH]2)CC1` [compound 242, N-((1r,4r)-4-aminocyclohexyl)-5-fluoro-1H-indole-2-carboxamide] yielded an IC50 of over 100 µM. `COc1ccc2cc(C(=O)NC(C)C3CCN(C(=O)[C@H](C)N)CC3)ccc2c1` (stereo partly drawn) [compound 220, N-(1-(1-(L-alanyl)piperidin-4-yl)ethyl)-6-methoxy-2-naphthamide] gave an IC50 of over 100 µM. `CC(NC(=O)Cn1ccnc1)C1CCN(C(=O)[C@H](C)N)CC1` (stereo partly drawn) [compound 316, N-(1-(1-(L-alanyl)piperidin-4-yl)ethyl)-2-(1H-imidazol-1-yl)acetamide] showed an IC50 of over 100 µM.

Same assay, conditions: read-out: SMYD3 Biochem IC50 (μM)*
`CCc1ccc(C(=O)NC(c2ccccc2)C2CCNCC2)s1` (stereo not drawn) [compound 55, 5-ethyl-N-(phenyl(piperidin-4-yl)methyl)thiophene-2-carboxamide] showed an IC50 of 116 µM. Work on `N[C@H]1CC[C@H](NC(=O)c2ccc3cc[nH]c3c2)CC1` [compound 160, N-((1r,4r)-4-aminocyclohexyl)-1H-indole-6-carboxamide] yielded an IC50 of over 100 µM. For `CC(NC(=O)c1ccc2c(c1)CC(=O)N2)C1CCN(C(=O)[C@H](C)N)CC1` (stereo partly drawn) [Cpd. No. 86, N-(1-(1-((S)-2-aminopropanoyl)piperidin-4-yl)ethyl)-2-oxoindoline-5-carboxamide Hydrochloride], the IC50 was 1.43 µM. `CCn1nc(C)cc1C(=O)NC(c1ccccc1)C1CCNCC1` (stereo not drawn) [compound 30, 1-ethyl-3-methyl-N-(phenyl(piperidin-4-yl)methyl)-1H-pyrazole-5-carboxamide] gave an IC50 of 69.2 µM. With `CCn1nc(C)cc1C(=O)N[C@H]1CC[C@H](N)CC1` [compound 27, N-((1r,4r)-4-aminocyclohexyl)-1-ethyl-3-methyl-1H-pyrazole-5-carboxamide] the IC50 was 102 µM. `CN1C(=O)Cc2ccc(C(=O)NC3CCN(C(=O)[C@@H](N)Cc4ccc(O)cc4)CC3)cc21` [compound 88, N-(1-(L-tyrosyl)piperidin-4-yl)-1-methyl-2-oxoindoline-6-carboxamide] was tested, and the IC50 was 193 µM. `CN(C(=O)CCN)C1CCC(NC(=O)c2ccc3c(c2)CC(=O)N3)CC1` (stereo not drawn) [compound 178, N-(4-(3-amino-N-methylpropanamido)cyclohexyl)-2-oxoindoline-5-carboxamide] showed an IC50 of 3.4 µM. In the case of `O=C1Cc2cc(C(=O)NC(c3ccccc3)C3CCNCC3)ccc2N1` (stereo not drawn) [compound 44, 2-oxo-N-(phenyl(piperidin-4-yl)methyl)indoline-5-carboxamide], the IC50 is reported as 14.1 µM. Work on `CC(NC(=O)c1ccc2ncc(O)nc2c1)C1CCN(C(=O)[C@H](C)N)CC1` (stereo partly drawn) [compound 99, N-(1-(1-(L-alanyl)piperidin-4-yl)ethyl)-3-hydroxyquinoxaline-6-carboxamide] yielded an IC50 of 35.7 µM.
